Measurements reported in ChEMBL document CHEMBL1201862, “PubChem BioAssay data set” (2004).
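Exposure lasted 48 hours, with cells grown in 96-well plates and compounds tested at five concentrations. GI50: concentration for 50% inhibition of growth.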 Active and inactive are the calls of the source. Rule as the data show it: active = GI50 up to about 1.1 µM and inactive = higher.

Assays:
Assay in all cases: DTP human tumour cell line panel, 48 h
786-0 = system: 786-0
PC-3 = system: PC-3
CCRF-CEM = system: CCRF-CEM
SK-MEL-2 = system: SK-MEL-2
OVCAR-3 = system: OVCAR-3
MDA-MB-231 = system: MDA-MB-231
UO-31 = system: UO-31
HT-29 = system: HT-29
KM12 = system: KM12
SK-MEL-5 = system: SK-MEL-5
RXF 393 = system: RXF 393
UACC-62 = system: UACC-62
SF-268 = system: SF-268
SF-295 = system: SF-295
OVCAR-4 = system: OVCAR-4
RPMI-8226 = system: RPMI-8226
TK-10 = system: TK-10
OVCAR-8 = system: OVCAR-8
HCC 2998 = system: HCC 2998
LOX IMVI = system: LOX IMVI

Measured: GI50

O=C(NCc1cccc(C(F)(F)F)c1)c1cc2sccc2nc1C(F)(F)F
inactive: 786-0 25.5 µM | PC-3 > 100 µM | CCRF-CEM > 100 µM | SK-MEL-2 > 100 µM | OVCAR-3 83.4 µM | MDA-MB-231 51.4 µM | UO-31 > 100 µM | HT-29 > 100 µM | KM12 > 100 µM | SK-MEL-5 93.1 µM | RXF 393 27.7 µM | UACC-62 > 100 µM | SF-268 64 µM | SF-295 46.7 µM | OVCAR-4 32.7 µM | RPMI-8226 > 100 µM | TK-10 64 µM | OVCAR-8 88.7 µM

CC1(C(=O)Nc2ccc3cc4ccccc4cc3c2)CC2(C)CC(C)(C1)C(O)NC2=O (centres undefined)
inactive: 786-0 > 100 µM | CCRF-CEM 34.4 µM | SK-MEL-2 > 100 µM | OVCAR-3 70 µM | UO-31 > 100 µM | HT-29 92.5 µM | KM12 > 100 µM | HCC 2998 > 100 µM | SK-MEL-5 > 100 µM | RXF 393 > 100 µM | UACC-62 > 100 µM | SF-268 > 100 µM | SF-295 66.5 µM | LOX IMVI 62.4 µM | OVCAR-4 > 100 µM | RPMI-8226 61.1 µM | TK-10 63 µM | OVCAR-8 > 100 µM

COc1ccc(/C=C(\C(C)=O)C(=O)Nc2ccccc2)cc1
inactive: 786-0 > 100 µM | CCRF-CEM > 100 µM | SK-MEL-2 > 100 µM | OVCAR-3 > 100 µM | UO-31 > 100 µM | HT-29 > 100 µM | KM12 > 100 µM | HCC 2998 > 100 µM | SK-MEL-5 > 100 µM | RXF 393 > 100 µM | UACC-62 > 100 µM | SF-268 > 100 µM | SF-295 > 100 µM | LOX IMVI > 100 µM | OVCAR-4 > 100 µM | RPMI-8226 > 100 µM | TK-10 > 100 µM | OVCAR-8 > 100 µM

Cn1ncc2c(Cl)ncnc21
inactive: 786-0 > 100 µM | PC-3 > 100 µM | SK-MEL-2 > 100 µM | OVCAR-3 > 100 µM | UO-31 > 100 µM | HT-29 > 100 µM | KM12 > 100 µM | HCC 2998 > 100 µM | SK-MEL-5 > 100 µM | RXF 393 > 100 µM | UACC-62 > 100 µM | SF-268 > 100 µM | SF-295 > 100 µM | LOX IMVI > 100 µM | OVCAR-4 > 100 µM | RPMI-8226 > 100 µM | TK-10 > 100 µM | OVCAR-8 > 100 µM

CCON=C1C(C)(C)C(C)(C)C(C)(C)C1(C)C
inactive: 786-0 > 100 µM | PC-3 > 100 µM | CCRF-CEM > 100 µM | SK-MEL-2 > 100 µM | OVCAR-3 > 100 µM | MDA-MB-231 > 100 µM | HT-29 > 100 µM | KM12 > 100 µM | SK-MEL-5 > 100 µM | RXF 393 > 100 µM | UACC-62 > 100 µM | SF-268 > 100 µM | SF-295 > 100 µM | LOX IMVI > 100 µM | OVCAR-4 > 100 µM | RPMI-8226 > 100 µM | TK-10 > 100 µM | OVCAR-8 > 100 µM

O=C(N/C=C1\C(=O)Oc2ccccc2C1=O)Nc1ccccc1
inactive: 786-0 43.3 µM | CCRF-CEM > 100 µM | SK-MEL-2 18.5 µM | OVCAR-3 75 µM | UO-31 28.3 µM | HT-29 > 100 µM | KM12 64 µM | HCC 2998 58.1 µM | SK-MEL-5 25.8 µM | RXF 393 16.7 µM | UACC-62 38.5 µM | SF-268 31.8 µM | SF-295 > 100 µM | LOX IMVI 42.4 µM | OVCAR-4 > 100 µM | RPMI-8226 > 100 µM | TK-10 34 µM | OVCAR-8 44.1 µM

O=[N+]([O-])c1ccc(Cl)c(C2CC(c3cccc4ccccc34)=Nc3ccccc3S2)c1 (centres undefined)
inactive: 786-0 12.4 µM | CCRF-CEM 3.43 µM | SK-MEL-2 21.7 µM | OVCAR-3 16.3 µM | UO-31 18.4 µM | HT-29 17.3 µM | KM12 20.2 µM | HCC 2998 69 µM | SK-MEL-5 16.7 µM | RXF 393 8.91 µM | UACC-62 15.4 µM | SF-268 18.7 µM | SF-295 23.9 µM | LOX IMVI 20 µM | OVCAR-4 20.1 µM | RPMI-8226 2.6 µM | TK-10 41 µM | OVCAR-8 12.9 µM

FC(F)(F)c1cc(N(C2c3ccccc3C=Cc3ccccc32)P(Cl)Cl)cc(C(F)(F)F)c1
inactive: 786-0 16.8 µM | PC-3 22.7 µM | CCRF-CEM 24 µM | SK-MEL-2 18.7 µM | OVCAR-3 16.4 µM | MDA-MB-231 18.6 µM | UO-31 17.6 µM | HT-29 24.5 µM | KM12 21.4 µM | SK-MEL-5 18.1 µM | RXF 393 13.8 µM | SF-268 17.2 µM | SF-295 19 µM | LOX IMVI 18.5 µM | OVCAR-4 18.9 µM | RPMI-8226 18 µM | TK-10 33 µM | OVCAR-8 17.6 µM
